This note sets out measurements from publication PMC11728001, “Design, Synthesis, and Biological Evaluation of Novel Urea-Containing Carnosic Acid Derivatives with Anticancer Activity” (International Journal of Molecular Sciences, 2024).

Type in all cases: cell-based
The test system of assay [1] is HCT116 colorectal cancer cell line. Kind of assay: MTT cell viability assay, HCT116. Conditions: Homo sapiens, HCT-116, 72 h incubation, mean ± SD. As to the method: The antiproliferative activity of CA 1 and its derivatives was evaluated against a colorectal cancer (CRC) cell line (HCT116) using the MTT assay. The anticancer drug cisplatin was used as the reference drug.
(§1) The effect of the compounds on cell viability was evaluated using the MTT assay. HCT116 (3000 cells/well), SW620 (8000 cells/well), SW480 (6000 cells/well), Caco-2 (4000 cells/well), A375 (1500 cells/well), MiaPaca-2 (2000 cells/well), and BJ (10,000 cells/well) cells were seeded in 96-well plates. After 24 h, the growth medium was replaced with a fresh medium containing the desired concentration of the compound or DMSO (control). After 72 h of incubation, the supernatant was removed and 100 µL of a mixture (1:1) of filtered MTT solution (1 mg/mL in PBS) with FBS-free medium was added to each well. After 1 h of incubation at 37 °C, the mixture was removed and 100 µL of DMSO was added to each well to dissolve the formed formazan crystals. Absorbance was immediately measured at 570 nm using a Benchmark Plus Microplate Reader (Bio-Rad Laboratories, Hercules, CA, USA). IC50 values were calculated using GraphPad Prism 9 software (GraphPad Software, San Diego, CA, USA) and expressed as the mean ± standard deviation (SD) of at least three independent experiments.

Assay [2] relates to SW480 cells. Kind of assay: MTT cell viability assay, SW480. To be noted: Homo sapiens, 72 h incubation, mean ± SD. On the procedure:
as §1

The test system of another assay is SW620 cells. Nature of the assay: MTT cell viability assay, SW620. Conditions: Homo sapiens, SW-620, 72 h incubation, mean ± SD. On the procedure:
as §1

The test system of another assay is Caco-2 cells. Nature of the assay: MTT cell viability assay, Caco-2. To be noted: Homo sapiens, 72 h incubation, mean ± SD. As to the method:
as §1

In a further assay the test system is A375 melanoma cells. Kind of assay: MTT cell viability assay, A375. To be noted: Homo sapiens, A-375, 72 h incubation, mean ± SD. As to the method: as §1
Assay [3] has as its system MiaPaca-2 pancreatic cancer cells. Nature of the assay: MTT cell viability assay, MiaPaca-2. Conditions: Homo sapiens, MIA PaCa-2, 72 h incubation, mean ± SD. On the procedure:
as §1

Assay [4] has as its system BJ non-tumoral fibroblast cell line. Kind of assay: MTT cell viability assay, BJ. To be noted: 72 h incubation. As to the method:
as §1

Assay [5] deals with SW480 cells. Kind of assay: Apoptosis assay (annexin V-FITC/PI, FACS). Conditions: SW480, IC50 concentration. An excerpt:
Apoptosis can be detected by staining the cells with annexin V and propidium iodide (PI). […] However, during the early stages of apoptosis, the membrane flips and PS is exposed on the outer side of the cell membrane. Thus, annexin V fluorescently labeled with fluorescein isothiocyanate (FITC) binds with high affinity for PS. In late apoptosis/necrosis, the cells experience a ruptured membrane, allowing Annexin V to interact with the entire cell membrane. At this stage, the nuclear membrane loses its integrity, which facilitates the binding of PI to DNA. Thus, this dual-staining protocol allows for the detection and quantification of live cells (annexin V−, PI−), early apoptotic cells (annexin V+, PI−), and late apoptotic/necrotic cells (annexin V+, PI+).
SW480 cells (1.68 × 10^5 cells/well) were seeded in 6-well plates and incubated at 37 °C for 24 h. Subsequently, the growth medium was replaced with fresh medium (control) or compound 14 at the previously determined IC50 concentration. Following incubation for 24, 48, or 72 h, the adherent cells were gently detached by trypsinization, washed with DPBS, and collected by centrifugation. Similarly, the cells in suspension were washed with DPBS and collected by centrifugation, along with the adhered cells. […]

For assay [6], the system named is intracellular ROS in SW480 cells. Kind of assay: ROS determination assay (H2DCFDA, flow cytometry). Conditions: SW480, IC50 concentration. As to the method: Intracellular ROS levels were assessed by flow cytometry using H2DCFDA probe. SW480 cells were cultured in 6-well plates and treated according to the procedure described for the apoptosis assay. After incubation for 24, 48, and 72 h, adherent cells were collected by centrifugation after trypsinization and washed with DPBS. The cells were then incubated with 1 mL HBSS containing 2 mM L-glutamine and 50 µM H2DCFDA probe at 37 °C for 45 min. in a cell culture incubator. Next, the cellular suspension was washed with 2 mL of DPBS and the cells were collected by centrifugation. Finally, the cells were gently resuspended in 350 µL DPBS containing 20 µg/mL PI solution (1 mg/mL). The intracellular internalized probe reacts with ROS and undergoes transformation into 2′,7′-dichlorofluorescein (DCF). DCF fluorescence data were collected from 1 × 10^4 PI-negative cells by using a Gallios flow cytometer (Beckman Coulter, Brea, CA, USA) at 520 nm.

Another assay relates to SOD2 (MnSOD). Nature of the assay: Western blot, SOD2 (MnSOD) expression in SW480 cells. Conditions: SW480, IC50 concentration, 24, 48 and 72 h. As to the method: SW480 cells (1.68 × 10^5 cells/well) were seeded in 6-well plates and incubated at 37 °C for 24 h. […] At the end of the treatment period, cells were washed twice with ice-cold DPBS and incubated for 30 min. at 4 °C with lysis buffer containing 20 mM Tris-HCl (pH 7.5), 1 mM DTT, 0.2% Triton X-100, 1 mM Na-EDTA, 0.5 mM sodium deoxycholate, 1% proteases inhibitor cocktail, and 0.5% phosphatases inhibitor cocktail. The cells were scraped, sonicated, and centrifuged at 12,000× g for 20 min. at 4 °C. The supernatants were recovered, and the protein concentration was quantified using Pierce^TM BCA protein assay reagents A and B and Pierce^TM bovine serum albumin standard ampules (2 mg/mL).
Membranes were blocked with 5% skim milk in PBS-Tween-20 (0.1%) for 1 h at room temperature, following its incubation with the specific primary antibodies overnight at 4 °C (CDK4, CDK6, and SOD2 (MnSOD)). Exceptionally, the primary antibody against actin was only incubated for 30 min. at room temperature. The membranes were then washed with PBS-Tween-20 (0.1%) and incubated for 40 min. with an anti-mouse secondary antibody or for 1 h with an anti-rabbit secondary antibody. After incubation, the membranes were washed again with PBS-Tween-20 (0.1%) and treated with the Immobilon Western Chemiluminescent HRP Substrate Kit. […]

Regarding `CC(=O)Oc1c(C(C)C)cc2c(c1OC(C)=O)[C@@]1(NC(=O)NCCc3cccc(Cl)c3)CCCC(C)(C)[C@@H]1CC2` [Compound 14, (4bR,8aS)-4b-(3-(3-chlorophenethyl)ureido)-2-isopropyl-8,8-dimethyl-4b,5,6,7,8,8a,9,10-octahydrophenanthrene-3,4-diyl diacetate], the IC50 in assay [1] was 9.8 ± 0.5 µM; with SW480 cells [2], 6.1 ± 0.3 µM; in the assay with SW620 cells, 6.1 ± 0.3 µM; in the assay on Caco-2 cells, 8 ± 0.5 µM; with A375 melanoma cells it was 7 ± 0.4 µM; in assay [3] it was 9 ± 0.8 µM. In [4], this compound showed a 50% inhibitory concentration (IC50) of more than 25 µM. Moreover, the “increase of cells in late apoptosis/necrosis” value in the assay with SW480 cells [5] (48 and 72 h) was “not sustained”. In addition, in the assay with SW480 cells [5] (24 h, control 6.5%), the “percentage of cells in late apoptosis/necrosis” value was found to be 8.3%. The “percentage of intracellular ROS compared with control” value came out at 56% in assay [6] (24 h) and 71% in [6] (48 h). Also, the “change in ROS levels” value in assay [6] (72 h) is listed as “no significant changes”. Further, the “expression of SOD2 (MnSOD)” value in the assay on SOD2 (MnSOD) was “no significant changes”.
